{"source": "patent US11324798B2", "about": "“Materials and methods for treatment of inflammation” (CYTOGEL PHARMA, LLC, priority 2010, dated 2022)", "system": "mustard oil-induced acute neurogenic inflammation in the mouse ear", "assay": "5% mustard oil-induced acute neurogenic ear swelling of the mouse, micrometry (Example 2)", "assay_type": "in vivo", "conditions": "for AUC of time course of percentage ear swelling: 3 h, control 55.29±4.91", "experimental": "For the in vivo rat and mouse experiments, 5.5 ml of the 1 mg/ml stock solution of CYT-1010 was prepared freshly every experimental day with 20% HPCD dissolved in sterile distilled water. […] The vehicle was 20% HPCD dissolved in sterile distilled water. Further dilutions of the compound for the smaller administered doses were made with this vehicle, the 500 μg/ml and 100 μg/ml concentrations looked opalescent and the lower concentrations were clear. In rats 0.1 ml/100 g, in mice 0.1 ml/10 g volumes were administered i.v. 10 min before the induction of the inflammation.\nMice were anaesthesized with urethane (1.2 g/kg i.p.) to achieve a long-lasting deep anaesthesia and minimize respiratory depression. Ten μl of 5% mustard oil dissolved in paraffin oil was smeared on both sides of both ears. Mustard oil in this concentration selectively activates Transient Receptor Potential A1 (TRPA1) on capsaicin-sensitive peptidergic sensory nerves and induces the release of sensory neuropeptides. The released CGRP and substance P (SP) in the innervated area evoke vasodilatation and plasma protein extravasation, collectively called as acute neurogenic inflammation.\nCYT-1010 (1, 10, 100, 500 and 1000 μg/kg; 0.1 ml/10 g from the 0.1, 1, 10, 50 and 100 μg/ml solutions) was administered i.v. 5 min before the induction of the inflammation by mustard oil smearing. Mice in the control group were treated with the same volume of the vehicle, 20% hydroxypropyl-β-cyclodextrin dissolved in sterile distilled water. The experimental protocol is also illustrated in FIG. 1.\nThere were 8 mice in each CYT-1010-treated experimental group, and 9 in the vehicle-treated control group. 49 male CD1 mice (25-35 g) altogether were divided into 6 experimental groups: Group 1: vehicle-treated controls (n=9); Group 2: 1 μg/kg CYT-1010 (n=8); Group 3: 10 μg/kg CYT-1010 (n=8); Group 4: 100 μg/kg CYT-1010 (n=8); Group 5: 500 μg/kg CYT-1010 (n=8); and Group 6: 1000 μg/kg CYT-1010 (n=8).\nThis study was undertaken in blocks with 12-13 mice per occasion. The whole set of data was obtained during 4 days. There were 2 or 3 solvent-treated rats every day and the remaining 12 animals were randomised to receive each treatment.\nThe diameter of the ear was measured with an engineers' micrometer before the treatment and 4 times during the 3 h-examination period (20 min, 1 h, 2 h and 3 h). Oedema was expressed in % compared to the initial control values (Banvolgyi et al., 2004, 2005; Borzsei et al., 2008). Each of these publications is incorporated herein by reference in its entirety.\nResults are expressed as the mean±s.e.m. and analyzed for statistical significance with one-way ANOVA followed by Dunnett post-hoc test when the data were compared to the control group. In the rat in vivo studies, multiple comparisons were also made with Bonferroni's modified t-test to compare the effects of the different doses to each other. *p<0.05 was considered to be significant.", "data": [{"smiles": "NC(Cc1ccc(O)cc1)C(=O)NC1CCCCNC(=O)C(Cc2ccccc2)NC(=O)C(Cc2c[nH]c3ccccc23)NC1=O", "note": "[CYT-1010, H-Tyr-c-[D-Lys-Trp-Phe]]", "values": [{"measurement": "AUC of time course of percentage ear swelling", "setting": "1 μg/kg i.v., P<0.05", "value": "28.99±4.60", "unit": "units"}, {"measurement": "Effect on mustard oil-induced acute neurogenic ear swelling", "setting": "1 μg/kg, 10 μg/kg and 100 μg/kg i.v.", "value": "significantly reduced"}, {"measurement": "AUC of time course of percentage ear swelling", "setting": "10 μg/kg i.v., P<0.01", "value": "28.15±3.42", "unit": "units"}, {"measurement": "AUC of time course of percentage ear swelling", "setting": "100 μg/kg i.v., P<0.01", "value": "26.55±5.51", "unit": "units"}, {"measurement": "AUC of time course of percentage ear swelling", "setting": "500 μg/kg i.v., NS", "value": "52.24±9.70", "unit": "units"}, {"measurement": "AUC of time course of percentage ear swelling", "setting": "1000 μg/kg i.v., NS", "value": "37.25±5.72", "unit": "units"}, {"measurement": "Effect on mustard oil-induced ear swelling", "setting": "1, 10 and 100 μg/kg i.v., at 1 hour", "value": "significant anti-edema action"}, {"measurement": "Significant inhibition of mustard oil-induced ear swelling", "setting": "1-1000 μg/kg i.v., 20 minutes post induction", "value": "none of the examined CYT-1010 doses"}, {"measurement": "Anti-edema effect on the mouse ear", "setting": "1-1000 μg/kg i.v., throughout a 3-h period", "value": "significant anti-edema effect"}, {"measurement": "Inhibitory action on ear swelling", "setting": "10 and 100 μg/kg i.v., both later time points (2 h, 3 h)", "value": "statistically significant"}, {"measurement": "Effect on mustard oil-induced ear swelling", "setting": "500 and 1000 μg/kg i.v.", "value": "did not influence ear swelling"}]}]}
